Measured values as given in patent EP0179667B1, “N6-substituted adenosines” (priority 1984, dated 1986).
pIC50: −log10 of the molar value.

What was measured:
[1] = tested on: Swiss-Webster male mice; assay: Mouse Activity and Screen Test Procedure (MAST): locomotor activity in actophotometer; format: in vivo; settings: one hour prior to testing
Procedure: Nine unfasted Swiss-Webster male mice weighing 20-30 g equally divided into three groups for each drug dose to be tested. That is, data for each dose level was generated by three separated groups of three mice each. A minimum of three dose levels (10, 30, and 100 mg/kg) are tested for each drug. Treatments are administered intraperitoneally one hour prior to testing. All dosages are calculated as parent compound and given in volumes of 10 ml/kg. […] Control animals are injected with Methocel. […] The actophotometer consists of a cylindrical chamber whose center is occupied by another cylinder which contains the illumination for six photocells located on the perimeter of the chamber. Six light-beam interruptions equal one count. […] Data: The data obtained from the screen test are expressed as percent of mice falling off the screen. Data derived from locomotor activity of drug treated mice are compared to the activity of vehicle treated animals and are expressed as percent inhibition of spontaneous locomotion. All percentages reported for inhibition of locomotion (LI) are based upon data accumulated for one hour. […] An overall dose rating is obtained by the following criteria: LAD refers to the lowest dose at which an A rating is achieved. […] The compounds are identified in the Examples.

[2] = biological target: T1, adenosine A2 receptor (Rattus norvegicus, UniProt P30543); assay: Adenosine Receptor Binding - A2 Receptor Affinity (RBA2); settings: [3H]NECA, rat striatal membranes; read-out: RBA-2
T1 construct: 5 mg original tissue weight of rat weight of rat striatal membranes; tissue Pel-Freez (Rogers, Arkansas); host or cells: rat striatum, membrane preparation
Procedure: Adenosine Receptor Binding - A2 Receptor Affinity (RBA2)
Brains from 200-500 g mixed sex Sprague-Dawley rats were purchased from Pel-Freez (Rogers, Arkansas). […] Brains were thawed and then kept on ice while the striata were dissected out. […] When needed, tissue was thawed at room temperature, disrupted in a Polytron, and kept on ice until used.
All incubations were for 60 minutes at 25°C in 12x75 mm glass tubes containing 1 ml Tris with 5 mg original tissue weight of rat weight of rat striatal membranes, 4 nM [^3H]-N-ethyl adenosine-5'-carboxamide ([^3H]NECA), 50 nM N^6-cyclopentyladenosine (to eliminate A1 receptor binding), 10 mM MgCl2, 0.1 units/ml of adenosine deaminase and 1% dimethylsulfoxide. N^6-Cyclopentyladenosine was dissolved at 10 mM in 0.02 N HCI and diluted in Tris. […] Test compounds were dissolved at 10 mM in dimethylsulfoxide on the same day as the experiment, and diluted in dimethylsulfoxide to 100x the final incubation concentration. […] [^3H]NECA was diluted to 40 nM in Tris. The membrane suspension (5 mg/0.79 ml) contained sufficient MgC12 and adenosine deaminase to give 10 mM and 0.1 units/ml, respectively, final concentration in the incubation. For test compounds with lC50 values less than 1 µM, the order of additions was test compound (10 µl), N^6-cyclopentyladenosine (100 µl), [^3H]NECA (100 µl), and membranes (0.79 ml). […] After all additions, the rack of tubes was vortexed, and the tubes were then incubated for 60 min at 25°C in a shaking water bath. The rack of tubes was vortexed an additional time halfway through the incubation.
incubations were terminated by filtration through 2.4 cm GF/B filters under reduced pressure. Each tube was filtered as follows: the contents of the tube were poured onto the filter, 4 ml of ice-cold Tris were added to the tube and the contents poured onto the filter, and the filter was washed twice with 4 ml of ice-cold Tris. The filtration was complete in about twelve seconds.
Nonspecific binding was defined as binding in the presence of 100 µM N^6-cyclopentyladenosine, and specific binding was defined as total binding minus nonspecific binding. The IC50 was calculated by weighed nonlinear least squares curve-fitting to the mass-action equation. [formula] • where Y is cpm bound • T is cpm total binding without drug • S is cpm specific binding without drug • D is the concentration of drug • and K is the IC50 of the drug Weighting factors were calculated under the assumption that the standard deviation was proportional to the predicted value of Y. Nonspecific binding was treated as a very large (infinite) concentration of drug in the computer analysis.

[3] = tested on: Swiss-Webster male mice; assay: Mouse Activity and Screen Test Procedure (MAST): screen test (ST); format: in vivo; settings: one hour postinjection
Excerpt: The compounds of the invention are new chemical substances which are useful as pharmaceutical agents for the treatment of psychoses. The antipsychotic activity of representative compounds of the invention was established by the Mouse Activity and Screen Test Procedrue (MAST) described below.
Nine unfasted Swiss-Webster male mice weighing 20-30 g equally divided into three groups for each drug dose to be tested. That is, data for each dose level was generated by three separated groups of three mice each.
A minimum of three dose levels (10, 30, and 100 mg/kg) are tested for each drug. Treatments are administered intraperitoneally one hour prior to testing. All dosages are calculated as parent compound and given in volumes of 10 ml/kg. Compounds are dissolved or suspended in 0.2% Methocel. Control animals are injected with Methocel.
Testing: A two part testing procedure is started one hour postinjection. First, the screen test (ST) is performed (see Pharmac. Biochem. Behav. 6, 351-353, 1977). Briefly this test consists of placing mice on individual wire screens which are then rotated 180 degrees at the start of a 60 second observation period. The number of mice falling off the inverted screen is recorded.
Data: The data obtained from the screen test are expressed as percent of mice falling off the screen. Data derived from locomotor activity of drug treated mice are compared to the activity of vehicle treated animals and are expressed as percent inhibition of spontaneous locomotion. All percentages reported for inhibition of locomotion (LI) are based upon data accumulated for one hour. Both phases of testing are graded: A=60-100%; G=31-59%; and N=0-30%. An overall dose rating is obtained by the following criteria:
LAD refers to the lowest dose at which an A rating is achieved. […] Utilizing this procedure, an overall dose rating of A was obtained for the noted compound at the indicated dose. The compounds are identified in the Examples.

T1 sequence (P30543 whole entry): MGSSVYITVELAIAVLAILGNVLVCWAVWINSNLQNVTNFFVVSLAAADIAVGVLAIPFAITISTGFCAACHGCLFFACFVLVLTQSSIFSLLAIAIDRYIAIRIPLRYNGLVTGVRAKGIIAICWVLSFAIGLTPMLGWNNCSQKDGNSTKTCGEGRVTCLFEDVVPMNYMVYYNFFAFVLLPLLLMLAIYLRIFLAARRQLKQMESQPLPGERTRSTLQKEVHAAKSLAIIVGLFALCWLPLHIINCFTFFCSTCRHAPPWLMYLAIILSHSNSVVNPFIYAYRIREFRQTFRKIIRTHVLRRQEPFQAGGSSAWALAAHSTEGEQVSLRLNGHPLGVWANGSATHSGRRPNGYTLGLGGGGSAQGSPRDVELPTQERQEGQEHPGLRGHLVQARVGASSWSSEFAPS

| SMILES | Inhibition of mouse locomotor activity ([1]; 1 mg/kg intraperitoneally) [%] | Inhibition of mouse locomotor activity ([1]; 3 mg/kg intraperitoneally) [%] | Inhibition of mouse locomotor activity ([1]; 10 mg/kg intraperitoneally) [%] | pIC50 [2] | Screen test failure ([3]; 1 mg/kg intraperitoneally) [%] | Screen test failure ([3]; 3 mg/kg intraperitoneally) [%] | Screen test failure ([3]; 10 mg/kg intraperitoneally) [%] | Inhibition of mouse locomotor activity ([1]; 0.3 mg/kg intraperitoneally) [%] | Inhibition of mouse locomotor activity ([1]; 30 mg/kg intraperitoneally) [%] | Screen test failure ([3]; 0.3 mg/kg intraperitoneally) [%] | Screen test failure ([3]; 30 mg/kg intraperitoneally) [%] | Inhibition of mouse locomotor activity ([1]; 100 mg/kg intraperitoneally) [%] | Screen test failure ([3]; 100 mg/kg intraperitoneally) [%] | Inhibition of mouse locomotor activity ([1]; 0.1 mg/kg intraperitoneally) [%] | Inhibition of mouse locomotor activity ([1]; 9.0 mg/kg intraperitoneally) [%] | Screen test failure ([3]; 0.1 mg/kg intraperitoneally) [%] | Screen test failure ([3]; 9.0 mg/kg intraperitoneally) [%] | Inhibition of mouse locomotor activity ([1]; 0.03 mg/kg intraperitoneally) [%] | Screen test failure ([3]; 0.03 mg/kg intraperitoneally) [%] |
| --- | --- | --- | --- | --- | --- | --- | --- | --- | --- | --- | --- | --- | --- | --- | --- | --- | --- | --- | --- |
| COc1ccc2c(c1)C(Nc1ncnc3c1ncn3[C@@H]1O[C@H](CO)[C@@H](O)[C@H]1O)CCC2 (single isomer, unassigned) [Example 5, N6-[1-(7-Methoxy)-tetralinyl]-adenosine] | 39 | 82 | 91 | 6.04 | 0 | 11 | 11 |  |  |  |  |  |  |  |  |  |  |  |  |
| COc1ccc2c(c1)C(Nc1ncnc3c1ncn3[C@@H]1O[C@H](CO)[C@@H](O)[C@H]1O)CCC2 (single isomer, unassigned) [Example 8] | 83 | 88 | 93 | 6.39 | 11 | 11 | 22 | 25 | 94 | 11 | 65 |  |  |  |  |  |  |  |  |
| OC[C@H]1O[C@@H](n2cnc3c(NC4CCCc5ccccc54)ncnc32)C(O)[C@@H]1O (stereo in doubt) [Example 1, (R,S)-N^6-[1-Tetralinyl]-adenosine] | 86 | 93 | 98 | 6.32 | 0 | 0 | 22 |  | 97 |  | 22 | 99 | 99 |  |  |  |  |  |  |
| OC[C@H]1O[C@@H](n2cnc3c(NC4CCCc5ccccc54)ncnc32)[C@H](O)[C@@H]1O (stereo partly drawn) [Example 2, (R)-N^6-[1-Tetralinyl]-adenosine] | 79 | 95 |  | 6.61 | 11 | 22 |  | 45 | 99 | 0 | 66 |  |  | 25 | 97 | 0 | 33 |  |  |
| OC[C@H]1O[C@H](n2cnc3c(NC4CCCc5ccccc54)ncnc32)[C@H](O)[C@@H]1O (stereo partly drawn) [Example 3, (S)-N^6-[1-Tetralinyl]-adenosine] | 30 | 69 | 95 | 5.69 | 22 | 0 | 0 | 34 | 96 | 0 | 11 |  |  | 40 |  | 11 |  |  |  |
| CC1CCc2ccccc2C1Nc1ncnc2c1ncn2[C@@H]1O[C@H](CO)[C@@H](O)[C@H]1O (stereo partly drawn) [Example 4, N^6-[1-(2-Methyl)-tetralinyl]-adenosine] |  |  | 97 | 6.28 |  |  | 77 | 70 | 99 | 11 | 88 | 99 | 77 | 1 |  | 0 |  | 3 | 0 |
| COc1ccc2c(c1)CCCC2Nc1ncnc2c1ncn2[C@@H]1O[C@H](CO)[C@@H](O)[C@H]1O (stereo partly drawn) [Example 6, N^6-[1-(6-Methoxy)-tetralinyl]-adenosine] | 22 | 3 | 62 | 5.36 | 0 | 0 | 0 |  | 94 |  | 44 | 99 | 44 |  |  |  |  |  |  |
| COc1cccc2c1CCCC2Nc1ncnc2c1ncn2[C@@H]1O[C@H](CO)[C@@H](O)[C@H]1O (stereo partly drawn) [Example 7, N^6-[5-Methoxy-1-aminotetralin]-adenosine] | 22 | 91 | 97 | 6.49 | 0 | 11 | 22 | 7 | 99 | 0 | 66 |  |  |  |  |  |  |  |  |
